System: diabetic mice with lower limb ischemia
Assay: Diabetic lower limb ischemia mouse model, blood flow by laser Doppler flowmetry
Type: in vivo
Settings: 3.125 ng/g of VEGF in composition DIV
Procedure: C57BL/6 male mice were sourced from the National Cheng Kung University (NCKU) Laboratory Animal Center or BioLASCO Taiwan Co., Ltd. They were housed in the animal facility of the NCKU Institute of Biotechnology for at least one week in order for them to adapt to the environment before experiments were performed.
Since low blood sugar levels in mice would interfere with the results, mice with blood sugar levels within the range of 400 mg/dl to 550 mg/dl were used for the experiments, and minute amount of insulin might be applied to mice to avoid life-threatening high blood sugar levels. In order to avoid the possibility of self-regenerative neovascularization, the femoral artery and its peripheral blood vessels in the lower limbs of the mice were severed. The model minimized the possibility of blood vessel regeneration, which allowed a more accurate assessment of the angiogenic ability of testing drugs. […]
At day 0, 1, 2, 3, 4, 5, 6, 7, 14, 21 and 28 post-surgery, the apparent appearance and blood flow of the lower limb in the mice were evaluated using the score system shown in Table 1 and laser Doppler flowmetry, respectively. ROI was calculated as the ratio of the blood flow signal of the left lower limb to that of the untreated right lower limb post-surgery, and the ratio in percentage was normalized based on the blood flow signal taken before the operation.

In the case of VEGF, the “Blood flow compared with the control group” value is reported as “significantly increased the blood flow at day 14 and then on post surgery”.

From US20260115253A1, “VISCOUS COMPOSITION FOR TREATING ISCHEMIA” (National Cheng Kung University, priority 2017, published 2026)
